Measurements published in ChEMBL document CHEMBL2086390, “Design, synthesis and structure-activity relationships of novel benzoxazolone derivatives as 18 kDa translocator protein (TSPO) ligands” (Bioorg Med Chem, 2012).
Converted amounts (≈) assume the structure as drawn. One block for each compound: values may come before it.

Experiments:
[1] = Aqueous solubility of the compound at pH 7.4; type: physicochemical; details: aqueous solution
[2] = Aqueous solubility of the compound at pH 2.5; type: physicochemical; details: aqueous solution
[3] = AUC in rat at 10 mg/kg, po; type: ADME, organism-based; parameters: dose 10 mg/kg, route oral; details: plasma
[4] = Tmax in rat at 10 mg/kg, po; type: ADME, organism-based; parameters: dose 10 mg/kg, route oral; details: in vivo
[5] = Cmax in rat at 10 mg/kg, po; type: ADME, organism-based; parameters: dose 10 mg/kg, route oral; details: in vivo
[6] = Volume of distribution at steady state in rat at 1 mg/kg, iv; type: ADME, organism-based; parameters: dose 1 mg/kg, route intravenous; details: in vivo, read-out: Vdss
[7] = Oral bioavailability in rat at 10 mg/kg; type: ADME, organism-based; details: in vivo
[8] = Ratio of AUC in brain to AUC in plasma of rat at 10 mg/kg, po; type: ADME, organism-based; parameters: dose 10 mg/kg, route oral; details: brain and plasma
[9] = system: Rattus norvegicus; assay: AUC in rat at 1 mg/kg, iv; type: ADME, organism-based, Plasma; parameters: dose 1 mg/kg, route intravenous; details: in vivo

- solubility [1]: < 1 µg/mL
Compound: CN(C(=O)Cn1c(=O)oc2ccc(-c3ccccc3)cc21)c1ccccc1

- solubility [1]: 45 µg/mL (≈ 125 µM)
Compound: CN(C(=O)Cn1c(=O)oc2ccc(-c3ccccc3)cc21)c1cccnc1

- solubility [2]: 440 µg/mL (≈ 1220 µM)
Compound: CN(C(=O)Cn1c(=O)oc2ccc(-c3cccnc3)cc21)c1ccccc1

- AUC [3]: 8370 ng·h/mL
- Tmax [4]: 1 h
- Cmax [5]: 50.4 ng/mL
- Vd [6]: 4.4 L/kg
- bioavailability [7]: 13.9%
- Kp [8]: 0.63
- AUC [9]: 6042 ng·h/mL
Compound: CN(C(=O)Cn1c(=O)oc2ccc(-c3cccnc3)cc21)c1ccccc1.Cl
